# Data taken from paper PMC3923664, “A Long-Chain Flavodoxin Protects Pseudomonas aeruginosa from Oxidative Stress and Host Bacterial Clearance” (PLoS Genetics, 2014).
# Tests used:
# IsiB = molecular target: T1, IsiB (Nostoc sp. PCC 7119, UniProt P0A3E0); assay: UV-visible absorption spectrum of purified holoprotein; format: binding; details: co-purified prosthetic group; 50 mM Tris-HCl pH 8.5
# T1 construct: recombinant, expressed in E. coli and purified after Fillat et al; long-chain flavodoxin
# T1 sequence (P0A3E0 2-170): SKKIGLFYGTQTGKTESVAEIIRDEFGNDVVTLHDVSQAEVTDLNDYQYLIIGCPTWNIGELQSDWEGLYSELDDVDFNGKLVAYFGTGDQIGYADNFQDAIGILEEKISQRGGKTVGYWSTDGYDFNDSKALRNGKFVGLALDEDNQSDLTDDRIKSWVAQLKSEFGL
# FldA = molecular target: T2, FldA (Escherichia coli, UniProt P61949); assay: as above; format: binding; details: co-purified prosthetic group; 50 mM Tris-HCl pH 8.5
# T2 construct: purified; preparation not described
# T2 sequence (P61949 2-176): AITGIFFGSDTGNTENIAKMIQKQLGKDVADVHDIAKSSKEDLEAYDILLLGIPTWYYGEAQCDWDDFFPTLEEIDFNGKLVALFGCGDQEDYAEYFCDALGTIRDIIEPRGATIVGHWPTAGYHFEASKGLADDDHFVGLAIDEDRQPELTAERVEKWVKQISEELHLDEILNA
compound,measurement,setting,value
Cc1cc2nc3c(=O)[nH]c(=O)nc-3n(C[C@H](O)[C@H](O)[C@H](O)COP(=O)(O)O)c2cc1C [FMN],UV-visible absorption spectrum of purified holoprotein,IsiB,is strongly red-shifted in the flavodoxins from Anabaena and E. coli (Figure 2A)
same,UV-visible absorption spectrum of purified holoprotein,FldA,is strongly red-shifted in the flavodoxins from Anabaena and E. coli (Figure 2A)
